Measurements from BindingDB's records for doi:10.7270/Q25H7DQC (Nmmlsc, 2009).

Molecular target: Ras-related protein Rab-2A (Canis lupus familiaris, UniProt P61105)
Assay: wildtype Rab2 GTP-binding inhibitors, SAR follow-up, biochemical, multiplex dose response, Bodipy-FL-GTP, flow cytometry (AID 2033)
Details: not given

Sequence of Ras-related protein Rab-2A (P61105 whole entry): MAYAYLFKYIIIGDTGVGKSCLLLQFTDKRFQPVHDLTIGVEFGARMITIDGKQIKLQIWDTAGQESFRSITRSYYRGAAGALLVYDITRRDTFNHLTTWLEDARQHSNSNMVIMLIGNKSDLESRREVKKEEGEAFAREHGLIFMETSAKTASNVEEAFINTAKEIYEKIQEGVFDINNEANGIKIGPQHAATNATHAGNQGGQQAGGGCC

Q: For `Cc1ccc(C)c(N2CCN(C(=O)CCc3nc(-c4ccccc4C(F)(F)F)no3)CC2)c1`, which EC50 is on record?
A: > 30 µM

Q: `Cc1ccc(C)c(N2CCN(C(=O)CCc3nc(-c4ccc(C(F)(F)F)cc4)no3)CC2)c1` [1-[4-(2,5-dimethylphenyl)-1-piperazinyl]-3-[3-[4-(trifluoromethyl)phenyl]-1,2,4-oxadiazol-5-yl]-1-propanone] was tested. Which EC50 did it give?
A: > 30 µM

Q: `COc1ccc(-c2noc(CCCCC(=O)N3CCN(c4cc(C)ccc4C)CC3)n2)cc1` [1-[4-(2,5-dimethylphenyl)-1-piperazinyl]-5-[3-(4-methoxyphenyl)-1,2,4-oxadiazol-5-yl]-1-pentanone] was tested. Which EC50 did it give?
A: > 30 µM

Q: With `COc1ccc(-c2noc(CC(=O)N3CCN(c4cc(C)ccc4C)CC3)n2)cc1` [1-[4-(2,5-dimethylphenyl)piperazin-1-yl]-2-[3-(4-methoxyphenyl)-1,2,4-oxadiazol-5-yl]ethanone] as the molecule, how does the EC50 read?
A: > 30 µM

Q: How did the EC50 turn out when `COc1ccc(-c2coc(CCC(=O)N3CCN(c4cc(C)ccc4C)CC3)n2)cc1` [1-[4-(2,5-dimethylphenyl)piperazin-1-yl]-3-[4-(4-methoxyphenyl)-1,3-oxazol-2-yl]propan-1-one] was run?
A: > 30 µM

Q: `COc1ccc(-c2noc(CCC(=O)N3CCN(c4cccc(Br)c4)CC3)n2)cc1` [1-[4-(3-bromophenyl)-1-piperazinyl]-3-[3-(4-methoxyphenyl)-1,2,4-oxadiazol-5-yl]-1-propanone] was tested. Which EC50 did it give?
A: > 30 µM

Q: `COc1ccc(-c2noc(CCC(=O)N3CCN(c4cccc(F)c4)CC3)n2)cc1` [1-[4-(3-fluorophenyl)piperazin-1-yl]-3-[3-(4-methoxyphenyl)-1,2,4-oxadiazol-5-yl]propan-1-one] was tested. Which EC50 did it give?
A: > 30 µM

Q: `COc1ccc(-c2noc(CCC(=O)N3CCN(c4ccc(Br)cc4)CC3)n2)cc1` [1-[4-(4-bromophenyl)piperazin-1-yl]-3-[3-(4-methoxyphenyl)-1,2,4-oxadiazol-5-yl]propan-1-one] was tested. Which EC50 did it give?
A: > 30 µM

Q: For `COc1ccc(-c2noc(CCC(=O)N3CCN(c4cccc(C(F)(F)F)c4)CC3)n2)cc1` [1-{3-[3-(4-methoxyphenyl)-1,2,4-oxadiazol-5-yl]propanoyl}-4-[3-(trifluoromethyl)phenyl]piperazine], which EC50 is on record?
A: > 30 µM

Q: For `Cc1ccc(C)c(N2CCN(C(=O)CCc3nc(-c4ccccc4Cl)no3)CC2)c1` [3-[3-(2-chlorophenyl)-1,2,4-oxadiazol-5-yl]-1-[4-(2,5-dimethylphenyl)-1-piperazinyl]-1-propanone], which EC50 is on record?
A: > 30 µM

Q: With `COc1ccc(-c2noc(CCC(=O)N3CCN(c4ccccc4)CC3)n2)cc1` [3-[3-(4-methoxyphenyl)-1,2,4-oxadiazol-5-yl]-1-(4-phenylpiperazin-1-yl)propan-1-one] as the molecule, how does the EC50 read?
A: > 30 µM

Q: Which EC50 does the source give for `COc1ccc(-c2noc(CCC(=O)N3CCN(c4ccc(OC)cc4)CC3)n2)cc1` [3-[3-(4-methoxyphenyl)-1,2,4-oxadiazol-5-yl]-1-[4-(4-methoxyphenyl)piperazin-1-yl]propan-1-one] here?
A: > 30 µM

Q: With `COc1ccc(-c2noc(CCC(=O)N3CCN(c4ccc(C(F)(F)F)cc4)CC3)n2)cc1` [3-[3-(4-methoxyphenyl)-1,2,4-oxadiazol-5-yl]-1-[4-[4-(trifluoromethyl)phenyl]piperazin-1-yl]propan-1-one] as the molecule, how does the EC50 read?
A: > 30 µM

Q: With `Cc1ccc(C)c(N2CCN(C(=O)CCc3nc(-c4cccc(F)c4)no3)CC2)c1` [KUC103366N] as the molecule, how does the EC50 read?
A: > 30 µM

Q: With `Cc1ccc(C)c(N2CCN(C(=O)CCc3nc(-c4cccc(C(F)(F)F)c4)no3)CC2)c1` [KUC103380N] as the molecule, how does the EC50 read?
A: > 30 µM

Q: `COc1ccc(-c2noc(CCC(=O)N3CCN(c4ccc(F)cc4)CC3)n2)cc1` [KUC103398N] was tested. Which EC50 did it give?
A: > 30 µM

Q: `Cc1ccc(C)c(N2CCN(C(=O)CCc3nc(-c4ccc(N(C)C)cc4)no3)CC2)c1` [KUC103409N] was tested. Which EC50 did it give?
A: > 30 µM

Q: `COc1ccccc1-c1noc(CCC(=O)N2CCN(c3cc(C)ccc3C)CC2)n1` [UNM-0000306071] was tested. Which EC50 did it give?
A: > 30 µM

Q: How did the EC50 turn out when `COc1ccc(-c2noc(CCC(=O)N3CCN(c4ccc(Cl)cc4)CC3)n2)cc1` [UNM-0000306121] was run?
A: > 30 µM

Q: How did the EC50 turn out when `COc1ccc(-c2noc(CCC(=O)N3CCN(c4cccc(C)c4)CC3)n2)cc1` [UNM-0000306125] was run?
A: > 30 µM

Q: For `COc1ccc(-c2cccc(CCC(=O)N3CCN(c4cc(C)ccc4C)CC3)c2)cc1` [UNM-0000306127], which EC50 is on record?
A: > 30 µM

Q: For `COc1ccc(-c2cc(CCC(=O)N3CCN(c4cc(C)ccc4C)CC3)[nH]n2)cc1` [UNM-0000306150], which EC50 is on record?
A: > 30 µM

Same assay, conditions: inactive by the depositor's call

Q: With `COc1cccc(-c2noc(CCC(=O)N3CCN(c4cc(C)ccc4C)CC3)n2)c1` as the molecule, how does the EC50 read?
A: 3.9 µM

Q: For `Cc1ccc(C)c(N2CCN(C(=O)CCc3nc(-c4ccccc4C)no3)CC2)c1`, which EC50 is on record?
A: 1.67 µM

Q: How did the EC50 turn out when `COc1ccc(-c2noc(CCC(=O)N3CCN(c4cccc(Cl)c4)CC3)n2)cc1` was run?
A: 8.53 µM

Q: How did the EC50 turn out when `COc1ccc(-c2noc(CCC(=O)N3CCN(c4ccccc4C)CC3)n2)cc1` was run?
A: 2.54 µM

Q: `COc1ccc(-c2ccc(CCC(=O)N3CCN(c4cc(C)ccc4C)CC3)s2)cc1` was tested. Which EC50 did it give?
A: 2.48 µM

Q: Which EC50 does the source give for `COc1ccc(-c2noc(CCC(=O)N3CCN(c4cccc(C)c4C)CC3)n2)cc1` [1-[4-(2,3-dimethylphenyl)-1-piperazinyl]-3-[3-(4-methoxyphenyl)-1,2,4-oxadiazol-5-yl]-1-propanone] here?
A: 2.31 µM

Q: How did the EC50 turn out when `COc1ccc(-c2noc(CCC(=O)N3CCN(c4cc(C)ccc4C)CC3)n2)cc1` [1-[4-(2,5-dimethylphenyl)-1-piperazinyl]-3-[3-(4-methoxyphenyl)-1,2,4-oxadiazol-5-yl]-1-propanone] was run?
A: 2.49 µM

Q: Which EC50 does the source give for `Cc1ccc(-c2noc(CCC(=O)N3CCN(c4cc(C)ccc4C)CC3)n2)cc1` [1-[4-(2,5-dimethylphenyl)-1-piperazinyl]-3-[3-(4-methylphenyl)-1,2,4-oxadiazol-5-yl]-1-propanone] here?
A: 4.14 µM

Q: Which EC50 does the source give for `Cc1cccc(-c2noc(CCC(=O)N3CCN(c4cc(C)ccc4C)CC3)n2)c1` [1-[4-(2,5-dimethylphenyl)piperazin-1-yl]-3-[3-(3-methylphenyl)-1,2,4-oxadiazol-5-yl]propan-1-one] here?
A: 1.32 µM

Q: For `COc1ccc(-c2cc(CCC(=O)N3CCN(c4cc(C)ccc4C)CC3)on2)cc1` [1-[4-(2,5-dimethylphenyl)piperazin-1-yl]-3-[3-(4-methoxyphenyl)-1,2-oxazol-5-yl]propan-1-one], which EC50 is on record?
A: 2.54 µM

Q: For `COc1ccc(-c2ccc(CCC(=O)N3CCN(c4cc(C)ccc4C)CC3)[nH]2)cc1` [1-[4-(2,5-dimethylphenyl)piperazin-1-yl]-3-[5-(4-methoxyphenyl)-1H-pyrrol-2-yl]propan-1-one], which EC50 is on record?
A: 5.22 µM

Q: For `COc1ccc(-c2noc(CCC(=O)N3CCN(c4ccccc4Cl)CC3)n2)cc1` [1-[4-(2-chlorophenyl)piperazin-1-yl]-3-[3-(4-methoxyphenyl)-1,2,4-oxadiazol-5-yl]propan-1-one], which EC50 is on record?
A: 2.39 µM

Q: For `COc1ccc(-c2noc(CCC(=O)N3CCN(c4ccccc4F)CC3)n2)cc1` [1-[4-(2-fluorophenyl)piperazin-1-yl]-3-[3-(4-methoxyphenyl)-1,2,4-oxadiazol-5-yl]propan-1-one], which EC50 is on record?
A: 0.733 µM

Q: With `Cc1ccc(C)c(N2CCN(C(=O)CCc3nc(-c4ccccc4Br)no3)CC2)c1` [3-[3-(2-bromophenyl)-1,2,4-oxadiazol-5-yl]-1-[4-(2,5-dimethylphenyl)-1-piperazinyl]-1-propanone] as the molecule, how does the EC50 read?
A: 3.13 µM

Q: With `COc1ccc(-c2noc(CCC(=O)N3CCN(c4ccccc4OC)CC3)n2)cc1` [3-[3-(4-methoxyphenyl)-1,2,4-oxadiazol-5-yl]-1-[4-(2-methoxyphenyl)-1-piperazinyl]-1-propanone] as the molecule, how does the EC50 read?
A: 1.32 µM

Q: With `COc1ccc(-c2noc(CCC(=O)N3CCN(c4ccc(C)cc4)CC3)n2)cc1` [3-[3-(4-methoxyphenyl)-1,2,4-oxadiazol-5-yl]-1-[4-(4-methylphenyl)piperazin-1-yl]propan-1-one] as the molecule, how does the EC50 read?
A: 0.708 µM

Q: With `COc1ccc(-c2noc(CCC(=O)N3CCN(c4cccc(OC)c4)CC3)n2)cc1` [KUC103349N] as the molecule, how does the EC50 read?
A: 6.46 µM

Q: Which EC50 does the source give for `COc1ccc(-c2noc(CCCC(=O)N3CCN(c4cc(C)ccc4C)CC3)n2)cc1` [KUC103353N] here?
A: 16.2 µM

Q: `Cc1ccc(C)c(N2CCN(C(=O)CCc3nc(-c4ccc(F)cc4)no3)CC2)c1` [KUC103364N] was tested. Which EC50 did it give?
A: 0.335 µM

Q: How did the EC50 turn out when `Cc1ccc(C)c(N2CCN(C(=O)CCc3nc(-c4cccc(Br)c4)no3)CC2)c1` [KUC103367N] was run?
A: 3.66 µM

Q: `COc1ccc(-c2noc(CCC(=O)N3CCN(c4ccccc4Br)CC3)n2)cc1` [KUC103370N] was tested. Which EC50 did it give?
A: 3.22 µM

Q: Which EC50 does the source give for `Cc1ccc(C)c(N2CCN(C(=O)CCc3nc(-c4ccccc4F)no3)CC2)c1` [KUC103401N] here?
A: 0.908 µM

Q: `COc1ccc(-c2noc(CCC(=O)N3CCC(c4cc(C)ccc4C)CC3)n2)cc1` [KUC103432N] was tested. Which EC50 did it give?
A: 2.51 µM

Q: For `COc1ccc(-c2ccc(CCC(=O)N3CCN(c4cc(C)ccc4C)CC3)o2)cc1` [KUC103447N], which EC50 is on record?
A: 15.1 µM

Q: For `Cc1ccc(C)c(N2CCN(C(=O)CCc3nc(-c4ccccc4)no3)CC2)c1` [UNM-0000306070], which EC50 is on record?
A: 0.841 µM

Q: For `Cc1ccc(C)c(N2CCN(C(=O)CCc3nc(-c4ccc(Br)cc4)no3)CC2)c1` [UNM-0000306072], which EC50 is on record?
A: 2.94 µM

Q: Which EC50 does the source give for `COc1ccc(-c2noc(CCC(=O)N3CCN(c4ccccc4C(F)(F)F)CC3)n2)cc1` [UNM-0000306082] here?
A: 2.1 µM

Q: For `Cc1ccc(C)c(N2CCN(C(=O)CCc3nc(-c4ccc(Cl)cc4)no3)CC2)c1` [UNM-0000306083], which EC50 is on record?
A: 1.79 µM

Q: `Cc1ccc(C)c(N2CCN(C(=O)CCc3nc(-c4cccc(Cl)c4)no3)CC2)c1` [UNM-0000306086] was tested. Which EC50 did it give?
A: 2.9 µM
